Key:
[1] = system: BAECs; assay: Cellular oxygen consumption rate, Seahorse XF24; type: cell-based, bovine
Description: (§1) (A, B) RLM respiring on glutamate/malate at 37° C. were incubated with various concentrations of MitoG for 7 min in an oxygen electrode to measure coupled respiration (A) before ADP was added to measure phosphorylating respiration (B). Data are the percentage of the respiration rates of untreated controls (dashed lines). (C and D) C2C12 cells (C) or BAECs [Bovine Aortic Endothelial Cells; Cell Applications Inc, San Diego, Calif.] (D) were incubated with MitoG for 24 h and cell survival was then determined using the MTS assay. Data are expressed as a percentage of the untreated controls (dashed line). (E-H) BAECs were incubated with MitoG for 2 h at 37° C. and the cellular oxygen consumption rate (OCR) after the sequential additions of oligomycin, FCCP and antimycin A/rotenone were then measured using a Seahorse XF24 analyser. (E) OCR due to ATP synthesis, (F) OCR due to proton leak, (G) reserve capacity and (H) non-mitochondrial oxygen consumption. Results are means±S.E. of three independent experiments. *, P<0.05 or **, P<0.01 relative to untreated controls.
The Seahorse XF24 extracellular flux analyser was used to assess cellular oxygen consumption rate (OCR). […] OCR was determined as follows: cells were washed twice in assay medium [4.15 g/l DMEM base, 1.85 g/l NaCl, ix glutamax (Invitrogen), 1 mM sodium pyruvate, 5 mM D-glucose, 15 mg/l phenol red, 20 mM HEPES and 0.4% (v/v) FCS, pH 7.4] and incubated in 630 μl assay medium for 1 h at 37° C. in air. After 20 min equilibration basal OCR was determined and after 3 h incubation with MitoG sequential injections of oligomycin (1 μg/ml), FCCP (2 μM) and rotenone/antimycin A (4 μg/ml and 5 μM, respectively). OCRs were normalized to cell number as measured using the sulphorhodamine B (SRB) assay as follows: cells were fixed (200 μl 5% trichloroacetic acid at 4° C. for 1 h), washes with water (×3), stained for 20 min with 50 μl 0.4% (w/v) SRB in 1% (v/v) acetic acid, washed (3×1% acetic acid) and the incorporated SRB dye solubilised in 100 μl 10 mM Tris base for 5 min. […]

[2] = system: BAECs; assay: Cell survival, MTS assay, BAECs; type: cell-based, bovine; conditions: BAEC, 24 h
Description: as §1
To assess cell viability, C2C12 cells or BAECs were seeded at a density of 10,000 cells/well and 40,000 cells/well, respectively, in 96-well plates. […] After 2 h absorbance was read at 490 nm in a plate reader (SpectraMax Plus 384, Molecular Devices). […]

[3] = system: RLM respiring on glutamate/malate; assay: Protection against dicarbonyl-induced respiratory depression in isolated RLM; design: species or system rat; conditions: 37° C.
Description: Isolated RLM respiring on glutamate/malate were incubated with MitoG, methoxyphenylenediamine (MP) or butylTPP for 2 min, followed by 0.5 mM methylglyoxal or 5 mM glyoxal for 5 min. ADP was then added and the rate of oxygen consumption monitored at 37° C. (see FIGS. 12A & 12B). C2C12 cells were pre-treated with MitoG, methoxyphenylenediamine (MP) or butylTPP for 1 h before exposure to 1 mM methylglyoxal or 5 mM glyoxal (see FIGS. 12C & 12D). Following an overnight incubation, cell survival was determined using the MTS assay. Similar experiments were conducted in BAECs pre-treated with MitoG, MP or butylTPP. For all experiments, concentrations of methylglyoxal and glyoxal used were chosen based on results from studies conducted prior to the protection assays. In these prior studies, RLM or cells were exposed to a range of dicarbonyl concentrations, and the phosphorylating rates of respiration or cell survival were evaluated. The results of these earlier experiments are shown in insets, and dicarbonyl concentrations that had caused significant respiratory depression or cell death were chosen for use in the protection assays. Data for all groups were normalized against untreated controls. For RLM, the rate of respiration by untreated controls was taken to be 100%; for cells, cell survival of untreated controls was taken to be 100%. Results are expressed as mean±S.E. of three independent experiments. MitoG was protective against methylglyoxal-induced respiratory depression and both methylglyoxal- and glyoxal-induced cell death in C2C12 cells and BAECs. […] In FIG. 12 the symbols *, ** respectively indicate that P<0.05 or P<0.01 relative to dicarbonyl-only groups; and the symbols +, ++ respectively indicate that P<0.05 or P<0.01 relative to untreated controls.

respiratory reserve capacity ([1]; 2-5 μM): decreased respiratory reserve capacity
OCR due to ATP synthesis ([1]; concentrations above 10 μM): slightly decreased
SMILES: Nc1ccc(OCCCCCC[P+](c2ccccc2)(c2ccccc2)c2ccccc2)cc1N [MitoG, (6-(3,4-Diaminophenoxy)hexyl)triphenylphosphonium chloride]
OCR due to proton leak ([1]; 2-5 μM): trend to an increased OCR due to proton leak
concentration above which cell viability decreased [2]: > 50 µM
protection against methylglyoxal-induced respiratory depression ([3]; 0.5 mM methylglyoxal): protected against methylglyoxal-induced respiratory depression in isolated RLM in a dose-dependent manner
protection against glyoxal-induced respiratory depression ([3]; 5 mM glyoxal): did not prevent glyoxal damage

Reference: patent US9963474B2, “Mitochondria-targeted dicarbonyl sequestering compounds” (MEDICAL RESEARCH COUNCIL, priority 2013, dated 2018)
